Data: patent publication US12612407B2, “Imidazo[2,1-f][1,2,4]triazin-4-amine derivatives as TLR7 agonist” (BEIGENE, LTD., priority 2020, dated 2026)
pEC50: −log10 of the molar value.

Biological target: T1, human TLR7 (Homo sapiens, UniProt Q9NYK1)
T1 construct: host or cells: HEK293 (HEK-Blue hTLR7)
T1 sequence (Q9NYK1 27-1049): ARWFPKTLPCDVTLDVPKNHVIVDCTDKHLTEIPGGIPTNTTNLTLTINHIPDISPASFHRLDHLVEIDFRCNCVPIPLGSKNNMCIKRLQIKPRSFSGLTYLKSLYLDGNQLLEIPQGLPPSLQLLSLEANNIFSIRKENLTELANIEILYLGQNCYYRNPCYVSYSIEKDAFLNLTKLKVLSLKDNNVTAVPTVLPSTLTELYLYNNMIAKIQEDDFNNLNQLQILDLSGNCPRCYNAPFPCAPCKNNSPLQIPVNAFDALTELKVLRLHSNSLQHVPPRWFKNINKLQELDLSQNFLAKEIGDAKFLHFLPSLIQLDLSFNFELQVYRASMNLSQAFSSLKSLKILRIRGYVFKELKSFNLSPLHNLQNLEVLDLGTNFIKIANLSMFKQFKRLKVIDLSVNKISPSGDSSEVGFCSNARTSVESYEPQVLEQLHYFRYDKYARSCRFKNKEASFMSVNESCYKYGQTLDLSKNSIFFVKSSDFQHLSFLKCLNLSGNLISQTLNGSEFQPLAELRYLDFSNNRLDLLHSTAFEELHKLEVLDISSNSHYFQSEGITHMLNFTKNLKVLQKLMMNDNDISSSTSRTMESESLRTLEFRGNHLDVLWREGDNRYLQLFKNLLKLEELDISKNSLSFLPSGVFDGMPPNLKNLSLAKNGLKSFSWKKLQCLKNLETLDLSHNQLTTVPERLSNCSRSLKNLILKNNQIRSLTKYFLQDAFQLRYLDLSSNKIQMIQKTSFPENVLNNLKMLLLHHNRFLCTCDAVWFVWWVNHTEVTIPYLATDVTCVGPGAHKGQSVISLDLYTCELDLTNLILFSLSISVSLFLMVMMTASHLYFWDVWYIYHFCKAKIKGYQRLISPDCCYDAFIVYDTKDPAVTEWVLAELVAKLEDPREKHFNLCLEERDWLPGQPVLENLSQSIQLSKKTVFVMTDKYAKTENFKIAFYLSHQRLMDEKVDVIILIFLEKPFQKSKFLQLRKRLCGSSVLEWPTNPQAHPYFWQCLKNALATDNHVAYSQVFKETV
Assay: HEK293-Blue hTLR7 Reporter Assay (QUANTI-BLUE, SEAP readout)
Format: cell-based
Details: HEK-Blue-hTLR7 cells, 24 hrs treatment, Table 1, B1-B232
Method: HEK293-Blue hTLR7 Reporter Assay: HEK-Blue-hTLR7 cell line (Invivogen, Cat. No. hkb-htlr7) was designed so that the expression of the secreted embryonic alkaline phosphatase (SEAP) was induced by activating NF-κ and AP-1 via stimulating human TLR7 with TLR7 agonists. HEK-Blue-hTLR7 cells were seeded at a density of 4×10^4 cells/well in a volume of 180 μL in a 96-well plate in DMEM (Cat. No. 11965-092) supplemented with 10% (v/v) heat-inactivated fetal bovine serum (FBS) (Gibco, 10099-1441), 100 U/ml penicillin and 100 μg/ml streptomycin (Gibco, 15140122) containing 50 U/mL penicillin, […] and 10% (v/v) heat-inactivated fetal bovine serum. The cells were settled for 5 hrs, then treated with increasing amounts of tested compounds at 37° C. for 24 hrs. Then 20 μL of the supernatant from each well was incubated with 180 μL Quanti-blue substrate solution at 37° C. for 10-30 mins before the activity of the SEAP was determined at 620-655 nm using a spectrophotometer. The EC50 value for each compound was calculated with GraphPad Prism software using the sigmoidal dose-response function.

Compound	pEC50
CCCCOc1nc(N)c2ncc(Cc3cnc(N4C[C@H]5C[C@@H]4CN5)c(C)c3)n2n1 [Compound B79, 7-((6-((1R,4R)-2,5-diazabicyclo[2.2.1]heptan-2-yl)-5-methylpyridin-3-yl)methyl)-2-butoxyimidazo[2,1-f][1,2,4]triazin-4-amine]	6.30
CCCCOc1nc(N)c2ncc(Cc3cnc(N4CCC(NC)CC4)c(C)c3)n2n1 [Compound B161, 2-butoxy-7-((5-methyl-6-(4-(methylamino)piperidin-1-yl)pyridin-3-yl)methyl)imidazo[2,1-f][1,2,4]triazin-4-amine]	7.96
CC[C@H](C)Oc1nc(N)c2ncc(Cc3cnc(N4CCN(C(=O)CNC)CC4)c(C)c3)n2n1 [Compound B146, (S)-1-(4-(5-((4-amino-2-(sec-butoxy)imidazo[2,1-f][1,2,4]triazin-7-yl)methyl)-3-methylpyridin-2-yl)piperazin-1-yl)-2-(methylamino)ethan-1-one]	8.00
CCCCOc1nc(N)c2ncc(Cc3ccc(N4CCNCC4)c(OC)c3)n2n1 [Compound B45, 2-butoxy-7-(3-methoxy-4-(piperazin-1-yl)benzyl)imidazo[2,1-f][1,2,4]triazin-4-amine]	6.38
CCCCOc1nc(N)c2ncc(Cc3cc(C)c(C4CCNCC4)cn3)n2n1 [Compound B47, 2-butoxy-7-((4-methyl-5-(piperidin-4-yl)pyridin-2-yl)methyl)imidazo[2,1-f][1,2,4]triazin-4-amine]	6.34
CCC[C@H](C)Oc1nc(N)c2ncc(Cc3cnc(N4CCN(C(=O)CN(C)C)CC4)c(C)c3)n2n1 [Compound B125, (S)-1-(4-(5-((4-amino-2-(pentan-2-yloxy)imidazo[2,1-f][1,2,4]triazin-7-yl)methyl)-3-methylpyridin-2-yl)piperazin-1-yl)-2-(dimethylamino)ethan-1-one]	8.60
CCC[C@H](C)Nc1nc(N)c2ncc(Cc3cnc(N4CCN(C(=O)CNC)CC4)c(C)c3)n2n1 [Compound B231, (S)-1-(4-(5-((4-amino-2-(pentan-2-ylamino)imidazo[2,1-f][1,2,4]triazin-7-yl)methyl)-3-methylpyridin-2-yl)piperazin-1-yl)-2-(methylamino)ethan-1-one]	8.39
CCCCOc1nc(N)c2ncc(Cc3cnc(N4CCC(COC)CC4)c(C)c3)n2n1 [Compound B104, 2-butoxy-7-((6-(4-(methoxymethyl)piperidin-1-yl)-5-methylpyridin-3-yl)methyl)imidazo[2,1-f][1,2,4]triazin-4-amine]	< 5.00
CCCC(C)Nc1nc(N)c2ncc(Cc3cnc(N4CCC(NC)CC4)c(C)c3)n2n1 (centres unmarked) [Compound B166, 7-((5-methyl-6-(4-(methylamino)piperidin-1-yl)pyridin-3-yl)methyl)-N2-(pentan-2-yl)imidazo[2,1-f][1,2,4]triazine-2,4-diamine]	8.59
CCCCOc1nc(N)c2ncc(Cc3cnc(N4CCCC4)c(C)c3)n2n1 [Compound B51, 2-butoxy-7-((5-methyl-6-(pyrrolidin-1-yl)pyridin-3-yl)methyl)imidazo[2,1-f][1,2,4]triazin-4-amine]	< 5.00
CCCCOc1nc(N)c2ncc(Cc3cnc(N4CCNCC4)c(C)c3)n2n1 [Compound B8, 2-butoxy-7-((5-methyl-6-(piperazin-1-yl)pyridin-3-yl)methyl)imidazo[2,1-f][1,2,4]triazin-4-amine]	6.87
CCCCOc1nc(N)c2ncc(Cc3cnc(N4CCC(CNC)CC4)c(C)c3)n2n1 [Compound B106, 2-butoxy-7-((5-methyl-6-(4-((methylamino)methyl)piperidin-1-yl)pyridine-3-yl)methyl)imidazo[2,1-f][1,2,4]triazin-4-amine]	7.15
COCC(C)Oc1nc(N)c2ncc(Cc3cnc(N4CCNCC4)c(C)c3)n2n1 (centres unmarked) [Compound B174, 2-((1-methoxypropan-2-yl)oxy)-7-((5-methyl-6-(piperazin-1-yl)pyridin-3-yl)methyl)imidazo[2,1-f][1,2,4]triazin-4-amine]	7.32
CCCCOc1nc(N)c2ncc(Cc3cnc(N4CCN(C(=O)CCCCN(C)C)CC4)c(C)c3)n2n1 [Compound B50, 1-(4-(5-((4-amino-2-butoxyimidazo[2,1-f][1,2,4]triazin-7-yl)methyl)-3-methylpyridin-2-yl)piperazin-1-yl)-5-(dimethylamino)pentan-1-one]	6.82
CCCCOc1nc(N)c2ncc(Cc3cnc(N4CCC(CCN(C)C)CC4)c(C)c3)n2n1 [Compound B110, 2-butoxy-7-((6-(4-(2-(dimethylamino)ethyl)piperidin-1-yl)-5-methylpyridin-3-yl)methyl)imidazo[2,1-f][1,2,4]triazin-4-amine]	7.37
CCC[C@@H](C)Nc1nc(N)c2ncc(Cc3cnc(N4CCC(CNC)CC4)c(C)c3)n2n1 (single isomer, unassigned) [Compound B214]	7.64
CCCCOc1nc(N)c2ncc(Cc3cnc(N4CCN(C(=O)[C@@H](N)C(C)C)CC4)c(C)c3)n2n1 [Compound B70, (S)-2-amino-1-(4-(5-((4-amino-2-butoxyimidazo[2,1-f][1,2,4]triazin-7-yl)methyl)-3-methylpyridin-2-yl)piperazin-1-yl)-3-methylbutan-1-one]	6.67
CCCCOc1nc(N)c2ncc(Cc3cnc(N4CCN(CCNC)CC4)c(C)c3)n2n1 [Compound B75, 2-butoxy-7-((5-methyl-6-(4-(2-(methylamino)ethyl)piperazin-1-yl)pyridin-3-yl)methyl)imidazo[2,1-f][1,2,4]triazin-4-amine]	6.92
2-butoxy-7-((6-(piperidin-4-yl)-5-(trifluoromethyl)pyridin-3-yl)methyl)imidazo[2,1-f][1,2,4]triazin-4-amine [Compound B28]	6.52
CCCCOc1nc(N)c2ncc(Cc3cnc(N4CCN(S(=O)(=O)CCC)CC4)c(C)c3)n2n1 [Compound B89, 2-butoxy-7-((5-methyl-6-(4-(propylsulfonyl)piperazin-1-yl)pyridin-3-yl)methyl)imidazo[2,1-f][1,2,4]triazin-4-amine]	< 5.00
CCCCOc1nc(N)c2ncc(Cc3cnc(N4CCC(N(C)C)C4)c(C)c3)n2n1 (centres unmarked) [Compound B87, 2-butoxy-7-((6-(3-(dimethylamino)pyrrolidin-1-yl)-5-methylpyridin-3-yl)methyl)imidazo[2,1-f][1,2,4]triazin-4-amine]	6.36
CCCCOc1nc(N)c2ncc(Cc3ccc(N4CCN[C@H](C)C4)c(C)c3)n2n1 [Compound B98, (R)-2-butoxy-7-(3-methyl-4-(3-methylpiperazin-1-yl)benzyl)imidazo[2,1-f][1,2,4]triazin-4-amine]	5.95
CCCC(CC)Oc1nc(N)c2ncc(Cc3cnc(N4CCN(C(=O)CN(C)C)CC4)c(C)c3)n2n1 (centres unmarked) [Compound B169, 1-(4-(5-((4-amino-2-(hexan-3-yloxy)imidazo[2,1-f][1,2,4]triazin-7-yl)methyl)-3-methylpyridin-2-yl)piperazin-1-yl)-2-(dimethylamino)ethan-1-one]	8.54
CCCC(C)Nc1nc(N)c2ncc(Cc3cnc(N4CCC(CNC)CC4)c(C)c3)n2n1 (centres unmarked) [Compound B204, 7-((5-methyl-6-(4-((methylamino)methyl)piperidin-1-yl)pyridin-3-yl)methyl)-N2-(pentan-2-yl)imidazo[2,1-f][1,2,4]triazine-2,4-diamine]	8.14
CCCCCCCCOc1nc(N)c2ncc(Cc3cnc(N4CCNCC4)c(C)c3)n2n1 [Compound B43, 7-((5-methyl-6-(piperazin-1-yl)pyridin-3-yl)methyl)-2-(octyloxy)imidazo[2,1-f][1,2,4]triazin-4-amine]	< 5.00
CCC[C@@H](C)Oc1nc(N)c2ncc(Cc3cnc(N4CCC(CN(C)C)CC4)c(C)c3)n2n1 [Compound B128, (R)-7-((6-(4-((dimethylamino)methyl)piperidin-1-yl)-5-methylpyridin-3-yl)methyl)-2-(pentan-2-yloxy)imidazo[2,1-f][1,2,4]triazin-4-amine]	7.39
